This note sets out measurements from patent publication US20230286973A1, “PROTEIN SECRETION INHIBITORS” (KEZAR LIFE SCIENCES, priority 2020, published 2023).

For data set [1], the system named is multiple myeloma cell line NCI-H929. As to the kind of experiment: H929 Cell Viability Assay. Format: cell-based, human. Conditions: Homo sapiens, NCI-H929, 48 h, NCI-H929 cells, Celltiter-Glo. The method in brief: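 Luminescent CellTiter-Glo read-out of viability after a 48 h exposure (37° C, 5% CO2) of NCI-H929 myeloma cells to compound dilutions in RPMI 1640 plus 10% FBS. Data for structures drawn without stereochemistry refer to stereoisomer mixtures.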

Data set [2] has as its system multiple myeloma cell line U266B1. Description: U266 Cell Viability Assay. Format: cell-based, human. To be noted: Homo sapiens, U-266, 48 h, U266B1 cells, Celltiter-Glo. The method in brief: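 CellTiter-Glo luminescence was read after a 48 h compound exposure (37 °C, 5% CO2) of human U266B1 myeloma cells grown in 10% FBS-supplemented RPMI 1640. Data for structures shown without defined stereochemistry refer to stereoisomer mixtures.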
A general note: ATP-based viability assays read luminescence as a measure of living cells.

A short description of data set [3]: Liver Microsome Stability Assay (rat). To be noted: rat liver microsomes, with NADPH, 1.0 uM compound.
Experimental: (§1) Stability of a compound was assessed in the presence of liver microsomes from various sources—mouse, rat, monkey and human liver microsomes. 1.0 uM compound, 0.4% DMSO in 0.1 M Potassium Phosphate with 1.0 mg/mL liver microsomes, were incubated at 37° C. with or without 1 mM NADPH. The samples were quenched at 0, and 30 minutes.
Data set [4] has as its system TNFα-FL/Gaussia Luciferase. As to the kind of experiment: Dox Induced TNFα-FL-Gluc Assay. The class given is cell-based. Conditions: for IC50: 24 hr Dox induction, 293FRT/TO cells, read-out: 24 hr Dox Inducible TNFaFLGluc 293FRT/TO: Mean IC50; for 24 hr Dox Inducible TNFaFLGluc 293FRT/TO: TNF/PD1: ratio of TNFaFLGluc IC50 to PD1ssGluc IC50. The method in brief: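 Compound was added with doxycycline to cells plated a day earlier, incubating at 37° C under 5% CO2. The reporter line is 293 T-REx expressing a TNFα (1-233)–Gaussia luciferase fusion under tetracycline-regulated control.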

A short description of data set [5]: Liver Microsome Stability Assay (mouse). To be noted: mouse liver microsomes, with NADPH, 1.0 uM compound. Background: Liver microsomes are vesicles of endoplasmic reticulum, rich in cytochrome P450 enzymes.
Experimental: as §1
The nature of data set [6]: Liver Microsome Stability Assay (monkey). To be noted: monkey liver microsomes, with NADPH, 1.0 uM compound.
Experimental: as §1
A short description of data set [7]: Liver Microsome Stability Assay (human). Conditions: human liver microsomes, with NADPH, 1.0 uM compound.
Experimental: as §1
Data set [8] deals with IL-2-FL/Gaussia Luciferase. As to the kind of experiment: Dox Induced IL2-FL-Gluc Assay. The class given is cell-based. To be noted: for IC50: 24 hr Dox induction, 293FRT/TO cells, read-out: 24 hr Dox Inducible IL2FLGluc 293FRT/TO: Mean IC50; for 24 hr Dox Inducible IL2FLGluc 293FRT/TO: IL2/PD1: ratio of IL2FLGluc IC50 to PD1ssGluc IC50. In short, it runs like this:
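Compounds in DMSO/medium with doxycycline were applied to a 293 T-REx stable line expressing an IL-2 (aa 1-153)–Gaussia luciferase fusion under tetracycline-regulated control, cells seeded one day earlier; incubation at 37 °C, 5% CO2. Structures drawn without stereochemistry were tested as stereoisomer mixtures.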

In data set [9] the test system is PD1-ss+10aa/Gaussia Luciferase. As to the kind of experiment: Dox-Induced PD1-ss-Gluc Assay. Format: cell-based. To be noted: 24 hr Dox induction; 293FRT/TO cells; read-out: 24 hr Dox Inducible PD1ssGluc 293FRT/TO: Mean IC50. The method in brief: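 Flp-In 293 T-REx cells stably carrying a doxycycline-inducible Gaussia luciferase fused to the PD1 signal sequence plus 10 aa were plated the day before. Compound dilutions in DMSO/media containing doxycycline were then added and incubated at 37 °C, 5% CO2. Data for undefined stereochemistry refer to stereoisomer mixtures.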

Data set [10] concerns HER3-ss+4aa/Gaussia Luciferase. Description: Dox-Induced Her3-ss-Gluc Assay. The class given is cell-based. Conditions: 24 hr Dox induction; 293FRT/TO cells; read-out: 24 hr Dox Inducible Her3(ss + 4)Gluc 293FRT/TO: Mean IC50. In short, it runs like this:
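Compounds were diluted in DMSO/media containing doxycycline. They were added to Flp-In 293 T-REx cells plated the previous day, then incubated at 37 °C under 5% CO2. These cells stably express, under T-REx control, Gaussia luciferase fused to the HER3 signal sequence plus 4 amino acids.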

Structures are written as SMILES. A value given as a limit tells only on which side of the number the result lay.

As to `CC(C)OC(=O)Nc1ccc(N2CCC[C@@H]2c2csc(NC(=O)c3cccn3Cc3ccnc(F)c3)n2)cc1` [Compound A146, isopropyl (R)-(4-(2-(2-(1-((2-fluoropyridin-4-yl)methyl)-1H-pyrrole-2-carboxamido)thiazol-4-yl)pyrrolidin-1-yl)phenyl)carbamate], the values for the EC50 in data set [1] and in data set [2] were 39.3 nM and above 25000 nM, respectively. Also, the “Liver Microsome Stability (Multiple Species): Rat - % Remaining after 30 min w/NADPH” value in [3] is given as 54.1%. In addition, the IC50 worked out at 20.6 nM in data set [4], 2.56 nM in data set [8], 0.97 nM in data set [9] and 2.47 nM in data set [10]. In data set [4], the “24 hr Dox Inducible TNFaFLGluc 293FRT/TO: TNF/PD1” value is recorded as 21.1. In addition, the “Liver Microsome Stability (Multiple Species): Mouse - % Remaining after 30 min w/NADPH” value in data set [5] was 34.8%. Besides, the “Liver Microsome Stability (Multiple Species): Monkey - % Remaining after 30 min w/NADPH” value in data set [6] was 21.6%. Further, the “Liver Microsome Stability (Multiple Species): Human - % Remaining after 30 min w/NADPH” value in [7] came out at 49.5%. In data set [8], the “24 hr Dox Inducible IL2FLGluc 293FRT/TO: IL2/PD1” value came to 2.6.
In the case of `CC(=O)N1CCC(Nc2ccc(N3CCC[C@@H]3c3csc(NC(=O)c4cccn4Cc4ccnc(F)c4)n3)cc2)CC1` [Compound A147, (R)-N-(4-(1-(4-((1-acetylpiperidin-4-yl)amino)phenyl)pyrrolidin-2-yl)thiazol-2-yl)-1-((2-fluoropyridin-4-yl)methyl)-1H-pyrrole-2-carboxamide], the results for the EC50 in data set [1] and in [2] were 469 nM and 3480 nM, respectively. Besides, the “Liver Microsome Stability (Multiple Species): Rat - % Remaining after 30 min w/NADPH” value in data set [3] worked out at 2.95%. Besides, the IC50 in data set [4] worked out at 316 nM; in [8], 109 nM; in data set [9] it was 71.9 nM; in data set [10], 106 nM. For the same compound, the “24 hr Dox Inducible TNFaFLGluc 293FRT/TO: TNF/PD1” value in [4] was 4.4. Further, in data set [5], the “Liver Microsome Stability (Multiple Species): Mouse - % Remaining after 30 min w/NADPH” value is on record as 5.61%. Besides, the “Liver Microsome Stability (Multiple Species): Monkey - % Remaining after 30 min w/NADPH” value in [6] stood at 0.94%. Moreover, the “Liver Microsome Stability (Multiple Species): Human - % Remaining after 30 min w/NADPH” value in data set [7] amounted to 8.6%. Moreover, the “24 hr Dox Inducible IL2FLGluc 293FRT/TO: IL2/PD1” value in data set [8] turned out to be 1.5.
`CN(C)S(=O)(=O)N1CC(Oc2ccc(N3CCC[C@@H]3c3csc(NC(=O)c4cccn4Cc4ccnc(F)c4)n3)cc2)C1` [Compound A148, (R)-N-(4-(1-(4-((1-(N,N-dimethylsulfamoyl)azetidin-3-yl)oxy)phenyl)pyrrolidin-2-yl)thiazol-2-yl)-1-((2-fluoropyridin-4-yl)methyl)-1H-pyrrole-2-carboxamide]: the concentration for a half-maximal effect (EC50) (as a rule, the concentration giving half of the maximal effect) in [1] stood at 1660 nM; in data set [2], 11100 nM. For the same compound, the “Liver Microsome Stability (Multiple Species): Rat - % Remaining after 30 min w/NADPH” value in data set [3] was found to be 28.3%. Further, the IC50 in data set [4] worked out at 579 nM; in [8], 87.2 nM; in data set [9], 45.9 nM; in data set [10], 73 nM. Besides, the “24 hr Dox Inducible TNFaFLGluc 293FRT/TO: TNF/PD1” value in data set [4] was determined as 12.6. Also, the “Liver Microsome Stability (Multiple Species): Mouse - % Remaining after 30 min w/NADPH” value in [5] turned out to be 4.79%. Moreover, the “Liver Microsome Stability (Multiple Species): Monkey - % Remaining after 30 min w/NADPH” value in [6] is reported as 0.84%. Besides, the “Liver Microsome Stability (Multiple Species): Human - % Remaining after 30 min w/NADPH” value in [7] was 7.55%. Moreover, in data set [8], the “24 hr Dox Inducible IL2FLGluc 293FRT/TO: IL2/PD1” value came out at 1.9.
For `N#Cc1cc(C(=O)Nc2nc([C@H]3CCCN3c3ccccc3)cs2)n(Cc2ccnc(F)c2)c1` [Compound A149, (R)-4-cyano-1-((2-fluoropyridin-4-yl)methyl)-N-(4-(1-phenylpyrrolidin-2-yl)thiazol-2-yl)-1H-pyrrole-2-carboxamide], the results for the EC50 in data set [1] and in data set [2] were 2540 nM and 4390 nM, respectively. For the same compound, in [3], the “Liver Microsome Stability (Multiple Species): Rat - % Remaining after 30 min w/NADPH” value is on record as 17.1%. Further, the IC50 amounted to 1010 nM in data set [4], 152 nM in data set [8], 68.1 nM in data set [9] and 126 nM in [10]. Further, the “24 hr Dox Inducible TNFaFLGluc 293FRT/TO: TNF/PD1” value in data set [4] is reported as 14.9. For the same compound, the “Liver Microsome Stability (Multiple Species): Mouse - % Remaining after 30 min w/NADPH” value in data set [5] turned out to be 46%. For the same compound, the “Liver Microsome Stability (Multiple Species): Monkey - % Remaining after 30 min w/NADPH” value in data set [6] came to 9.8%. Besides, the “Liver Microsome Stability (Multiple Species): Human - % Remaining after 30 min w/NADPH” value in data set [7] came to 25.9%. The “24 hr Dox Inducible IL2FLGluc 293FRT/TO: IL2/PD1” value in data set [8] amounted to 2.2.
On to `NS(=O)(=O)N1CC(Oc2ccc(N3CCC[C@@H]3c3csc(NC(=O)c4cccn4Cc4ccnc(F)c4)n3)cc2)C1` [Compound A150, (R)-1-((2-fluoropyridin-4-yl)methyl)-N-(4-(1-(4-((1-sulfamoylazetidin-3-yl)oxy)phenyl)pyrrolidin-2-yl)thiazol-2-yl)-1H-pyrrole-2-carboxamide], for which the EC50 in data set [1] was 3270 nM; in [2], above 25000 nM. For the same compound, the “Liver Microsome Stability (Multiple Species): Rat - % Remaining after 30 min w/NADPH” value in data set [3] was determined as 51.6%. The IC50 in [4] was determined as 758 nM; in [8] it was 130 nM; in data set [9], 49.2 nM; in data set [10], 82.1 nM. The “24 hr Dox Inducible TNFaFLGluc 293FRT/TO: TNF/PD1” value in [4] came to 15.4. The “Liver Microsome Stability (Multiple Species): Mouse - % Remaining after 30 min w/NADPH” value in [5] is reported as 36.3%. Further, the “Liver Microsome Stability (Multiple Species): Monkey - % Remaining after 30 min w/NADPH” value in data set [6] amounted to 0.71%. In addition, in data set [7], the “Liver Microsome Stability (Multiple Species): Human - % Remaining after 30 min w/NADPH” value is recorded as 17.4%. The “24 hr Dox Inducible IL2FLGluc 293FRT/TO: IL2/PD1” value in data set [8] is reported as 2.6.
With `CNS(=O)(=O)N1CC(Oc2ccc(N3CCC[C@@H]3c3csc(NC(=O)c4cccn4Cc4ccnc(F)c4)n3)cc2)C1` [Compound A151, (R)-1-((2-fluoropyridin-4-yl)methyl)-N-(4-(1-(4-((1-(N-methylsulfamoyl)azetidin-3-yl)oxy)phenyl)pyrrolidin-2-yl)thiazol-2-yl)-1H-pyrrole-2-carboxamide], the results for the EC50 in data set [1] and in data set [2] were 1390 nM and above 25000 nM, respectively. Further, the “Liver Microsome Stability (Multiple Species): Rat - % Remaining after 30 min w/NADPH” value in data set [3] is 38.3%. In addition, the IC50 in data set [4] was 386 nM; in [8], 59 nM; in [9], 21.5 nM; in data set [10] it was 43.1 nM. Further, in data set [4], the “24 hr Dox Inducible TNFaFLGluc 293FRT/TO: TNF/PD1” value is listed as 17.9. In addition, the “Liver Microsome Stability (Multiple Species): Mouse - % Remaining after 30 min w/NADPH” value in [5] was determined as 15.3%. Also, the “Liver Microsome Stability (Multiple Species): Monkey - % Remaining after 30 min w/NADPH” value in data set [6] is on record as 0.95%. Also, in data set [7], the “Liver Microsome Stability (Multiple Species): Human - % Remaining after 30 min w/NADPH” value stood at 7.69%. Moreover, in data set [8], the “24 hr Dox Inducible IL2FLGluc 293FRT/TO: IL2/PD1” value is given as 2.7.
Regarding `NC(=O)c1cc(C(=O)Nc2nc([C@H]3CCCN3c3ccccc3)cs2)n(Cc2ccnc(F)c2)c1` [Compound A152, (R)-1-((2-fluoropyridin-4-yl)methyl)-N2-(4-(1-phenylpyrrolidin-2-yl)thiazol-2-yl)-1H-pyrrole-2,4-dicarboxamide], the figures for the EC50 in data set [1] and in data set [2] were 13200 nM and above 25000 nM, respectively. Besides, the “Liver Microsome Stability (Multiple Species): Rat - % Remaining after 30 min w/NADPH” value in [3] stood at 24.1%. Besides, the IC50 in data set [4] was above 25000 nM; in data set [8] it was 3280 nM; in [9] it was 2410 nM; in data set [10], 2130 nM. Also, the “24 hr Dox Inducible TNFaFLGluc 293FRT/TO: TNF/PD1” value in [4] is reported as above 10.4. Further, the “Liver Microsome Stability (Multiple Species): Mouse - % Remaining after 30 min w/NADPH” value in data set [5] turned out to be 48.9%. Further, in [6], the “Liver Microsome Stability (Multiple Species): Monkey - % Remaining after 30 min w/NADPH” value was determined as 28.1%. The “Liver Microsome Stability (Multiple Species): Human - % Remaining after 30 min w/NADPH” value in data set [7] is 44.4%. The “24 hr Dox Inducible IL2FLGluc 293FRT/TO: IL2/PD1” value in data set [8] is reported as 1.4.
